pIC50: −log10 of the molar value. Where a name gives a salt, the structure may show the parent alone. Read-outs that look alike come from different tables or passages of the source. *1 amine or outer side, *2 acyl side, *3 side chain or, on linkers, in order; H or OH if unused. Where a SMILES comes first, the peptide text is derived from it. Side-chain parts run from the residue outwards. [ ]: non-standard residue; d: D form. The star is where a group is joined. Acryloyl(3-(pyridin-3-yl)) = O=C(C=Cc1cccnc1)*; 2Naphthoyl(6-OH) = O=C(c1ccc2cc(O)ccc2c1)*; NMeW = CN[C@@H](Cc1c[nH]c2ccccc12)C(=O)O; Isobutyloxycarbonyl = CC(C)COC(=O)*; Adoc = O=C(OC12CC3CC(CC(C3)C1)C2)*; Isopropoxycarbonyl = CC(C)OC(=O)*; NMeF = CN[C@@H](Cc1ccccc1)C(=O)O; X10 = COc1ccc(C=CC(=O)*)c(OC)c1; NMeD = CN[C@@H](CC(=O)O)C(=O)O; X4 = O=C(OC1C2CC3CC(C2)CC1C3)*; NH(2-Me-phenyl) = Cc1ccccc1N*; X1 = O=C(C=Cc1ccc(O)cc1)*; βNA = c1ccc2cc(N*)ccc2c1; Cbz = O=C(OCc1ccccc1)*; Boc = CC(C)(C)OC(=O)*; X3 = O=C(C=Cc1cccs1)*; CO = O=C([*:1])[*:2]
How the values were obtained:
[1] = biological target: T1, Type-A CCK receptor (Cavia porcellus, UniProt Q63931); test: Radioligand binding of [125I]BH-CCK-8 in guinea pig pancreatic membrane preparations; details: for IC50: guinea pig pancreatic membranes, 37° C., 150 min
T1 construct: Cortical and pancreatic membranes were prepared as described; from tissue; host or cells: guinea pig pancreas membranes
T1 sequence (Q63931 1-430): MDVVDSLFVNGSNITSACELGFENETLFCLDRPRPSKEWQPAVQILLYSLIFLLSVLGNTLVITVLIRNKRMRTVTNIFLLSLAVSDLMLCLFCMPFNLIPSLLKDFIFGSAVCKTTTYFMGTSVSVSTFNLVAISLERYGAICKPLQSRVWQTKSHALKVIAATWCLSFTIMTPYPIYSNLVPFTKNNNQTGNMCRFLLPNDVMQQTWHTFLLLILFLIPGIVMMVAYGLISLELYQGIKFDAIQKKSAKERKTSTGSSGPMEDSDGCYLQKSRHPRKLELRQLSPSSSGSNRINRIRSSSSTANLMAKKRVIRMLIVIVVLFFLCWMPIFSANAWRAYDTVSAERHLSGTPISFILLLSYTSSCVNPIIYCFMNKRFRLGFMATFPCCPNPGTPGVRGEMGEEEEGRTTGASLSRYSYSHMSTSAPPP
Text: (§1) CCK-8 [Asp-Tyr(SO3 H)-Met-Gly-Trp-Met-Asp-PheNH2 ], bestatin and phosphoramidion were purchased from Peptide International (Louisville, Ky.). EGTA (ethylene glycol-bis-(β-aminoethyl) N,N,N',N'-tetraacetic acid), HEPES (4-(2-hydroxyethyl)-1-piperazine-enthanesulfonic acid) and BSA (bovine serum albumin) were purchased from Sigma Chemical Co. (St. Louis, Mo.). [^125 I]-Bolton-Hunteer (BH-CCK-8) (specific activity, 2200 Ci/mmol) was obtained from New England Nuclear (Boston, Mass.). Male guinea pigs, 250 to 325 g, were obtained from Scientific Small Animal Laboratory and Farm (Arlington Heights, Ill.). Collagenase, code CLSPA was purchased from Worthington (Frehold, N.J.).
(§2) Protocol For Radioligand Binding Experiments in Guinea Pig Cerebral Cortical and Pancreatic Membrane Preparations
(§3) Cortical and pancreatic membranes were prepared as described (Lin and Miller; J. Pharmacol. Exp. Ther. 1985, 232:775-780,). In brief, cortex and pancreas were removed and rinsed with ice-cold saline. Visible fat and connective tissues were removed from the pancreas. […] The homogenates were entrifuged for 10 minutes at 1075×g and pellets were discarded. The supernatants were saved and centrifuged at 38,730×g for 20 minutes. The resultant pellets were rehomogenized in 25 mL of 50 mM Tris-HCl buffer with a Teflon-glass homogenizer, 5 up and down strokes. The homogenates were centrifuged again at 38,730×g for 20 minutes. Pellets werre then resuspended in 20 mM HEPES, containing 1 mM EGTA, 118 mM NaCl, 4.7 mM KCl, 5 mM MgCl2, 100 μM bestatin, 3 μM phosphoramidon, pH 7.4 at 22° C. with a Teflon-glass homogenizer, 15 up and down strokes. Resuspension volume for the cortex was 15-18 mL per gram of original wet weight and 60 mL per gram for the pancreas.
(§4) [^125 I]Bolton-Hunter CCK-8 and test compounds were diluted with HEPES-EGTA-salt buffer (see above) containing 0.5% BSA. To 1 mL Skatron polystyrene tubes were added 25 μL of test compounds, 25 μL of [^125 I]BH-CCK-8 and 200 μL of membrane suspension. The final BSA concentration was 0.1%. The cortical tissues were incubated at 30° C. for 150 minutes and pancreatic tissues were incubated at 37° C. for 150 min. Incubations were terminated by filtration using Skatron Cell Harvester and SS32 microfiber filter mats. […] IC50 s were determined from the Hill analysis.

[2] = biological target: T2, Type-B CCK receptor (Cavia porcellus, UniProt H0VZC5); test: Radioligand binding of [125I]BH-CCK-8 in guinea pig cerebral cortical membrane preparations; details: for IC50: guinea pig cortical membranes, 30° C., 150 minutes
T2 construct: Cortical and pancreatic membranes were prepared as described; from tissue; host or cells: guinea pig cerebral cortex membranes
T2 sequence (H0VZC5 1-426): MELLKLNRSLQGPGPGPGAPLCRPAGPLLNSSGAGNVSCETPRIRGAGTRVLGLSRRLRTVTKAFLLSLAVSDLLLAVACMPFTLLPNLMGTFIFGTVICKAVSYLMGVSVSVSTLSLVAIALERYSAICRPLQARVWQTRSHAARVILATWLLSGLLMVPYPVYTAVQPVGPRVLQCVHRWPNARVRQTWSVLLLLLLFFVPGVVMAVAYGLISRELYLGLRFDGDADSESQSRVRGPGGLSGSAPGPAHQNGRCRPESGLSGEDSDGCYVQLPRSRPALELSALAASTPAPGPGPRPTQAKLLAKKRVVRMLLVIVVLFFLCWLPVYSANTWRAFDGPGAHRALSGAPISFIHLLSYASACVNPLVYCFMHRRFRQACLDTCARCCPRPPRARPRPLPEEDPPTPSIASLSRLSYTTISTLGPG
Text: as §1, §2, §3, §4

[3] = read-out: IC50 (nM) 125I-BH-CCK-8 Type-A receptor
[4] = read-out: IC50 (nM) 125I-BH-CCK-8 Type-B receptor
[5] = IC50 (nM) 125I-BH-CCK-8 Type-A receptor

Compound	IC50 [1, 3] [nM]	IC50 [2, 4] [nM]	pIC50 [2]	further results
COc1ccc(C=CC(=O)NCCCC[C@H](NC(=O)[C@H](Cc2c[nH]c3ccccc23)NC(=O)OC(C)(C)C)C(=O)N[C@@H](CC(=O)O)C(=O)N[C@@H](Cc2ccccc2)C(N)=O)c(OC)c1 [Example 23, t-BOC-Trp-Lys(ε-N-(2,4-dimethoxycinnamoyl))-Asp-PheNH2] (Boc-WK(X10)DF-NH2)	130	3000		
CC(C)(C)OC(=O)N[C@@H](Cc1c[nH]c2ccccc12)C(=O)N[C@@H](CCCCNC(=O)Nc1ccc2ccccc2c1)C(=O)N[C@@H](CC(=O)O)C(=O)N[C@@H](Cc1ccccc1)C(N)=O [Example 44, t-BOC-Trp-Lys(ε-N-(β-naphthyl)aminocarbonyl)-Asp-PheNH2] (Boc-WK([CO-βNA])DF-NH2)	16		5.49	
Cc1ccccc1NC(=O)NCCCC[C@H](NC(=O)C(F)Cc1c[nH]c2ccccc12)C(=O)N[C@@H](CC(=O)O)C(=O)N[C@@H](Cc1ccccc1)C(N)=O (stereo partly shown) [Example 63, 2-Fluoro-3-(indol-3-yl)propionyl-Lys(ε-N-(2-methylphenyl)aminocarbonyl)-Asp-PheNH2]	20	4500		
Cc1ccccc1NC(=O)NCCCC[C@H](NC(=O)C(C#N)Cc1c[nH]c2ccccc12)C(=O)N[C@@H](CC(=O)O)C(=O)N[C@@H](Cc1ccccc1)C(N)=O (stereo partly shown) [Example 64, (2-Cyano-3-(3-indolyl)propionyl)-Lys(ε-N-(2-methylphenyl)aminocarbonyl)-Asp-PheNH2]	10	640		
Cc1ccccc1NC(=O)NCCCC[C@H](NC(=O)CCc1c[nH]c2ccccc12)C(=O)N(C)[C@@H](CC(=O)O)C(=O)N[C@@H](Cc1ccccc1)C(N)=O [Example 65, 3-(3-Indolyl)propionyl-Lys(ε-N-(2-methylphenyl)aminocarbonyl)-(NMe)Asp-PheNH2]	68	10000		
CN(C(=O)[C@H](CCCCNC(=O)C=Cc1cccs1)NC(=O)[C@H](Cc1c[nH]c2ccccc12)NC(=O)OC(C)(C)C)[C@@H](CC(=O)O)C(=O)N[C@@H](Cc1ccccc1)C(N)=O [Example 66, t-BOC-Trp-Lys-(ε-N-3-(2-thienyl)acrylyl)-(NMe)Asp-PheNH2] (Boc-WK(X3)[NMeD]F-NH2)	35	8100		
CN(C(=O)[C@H](CCCCNC(=O)C=Cc1cccnc1)NC(=O)[C@H](Cc1c[nH]c2ccccc12)NC(=O)OC(C)(C)C)[C@@H](CC(=O)O)C(=O)N[C@@H](Cc1ccccc1)C(N)=O [Example 67, t-BOC-Trp-Lys-(ε-N-3-(3-pyridyl)acrylyl)-(NMe)Asp-PheNH2] (Boc-WK(Acryloyl(3-(pyridin-3-yl)))[NMeD]F-NH2)	40	8300		
CN[C@@H](Cc1c[nH]c2ccccc12)C(=O)N[C@@H](CCCCNC(=O)Nc1ccccc1C)C(=O)N(C)[C@@H](CC(=O)O)C(=O)N[C@@H](Cc1ccccc1)C(N)=O [Example 69, HCl-(NMe)Trp-Lys(ε-N-(2-methylphenyl)aminocarbonyl)-(NMe)Asp-PheNH2] (H-[NMeW]K([CO-NH(2-Me-phenyl)])[NMeD]F-NH2)			< 5.00	IC50 [1, 5]: 14 nM
Cc1ccccc1NC(=O)NCCCC[C@H](NC(=O)CCc1c[nH]c2ccccc12)C(=O)N[C@@H](CC(=O)O)C(=O)N(C)[C@@H](Cc1ccccc1)C(N)=O [Example 70, 3-(Indol-3-yl)propionyl-Lys(ε-N-(2-methylphenyl)aminocarbonyl)-Asp-(NMe)PheNH2]	13	> 10000		
CN(C(=O)[C@H](CCCCNC(=O)C=Cc1ccc(O)cc1)NC(=O)[C@H](Cc1c[nH]c2ccccc12)NC(=O)OC(C)(C)C)[C@@H](CC(=O)O)C(=O)N[C@@H](Cc1ccccc1)C(N)=O [Example 71, t-BOC-Trp-Lys(ε-N-(4-hydroxycinnamoyl))-(NMe)Asp-PheNH2] (Boc-WK(X1)[NMeD]F-NH2)	4.9	5800		
CN(C(=O)[C@H](CCCCNC(=O)C=Cc1ccc(O)cc1)NC(=O)[C@H](Cc1c[nH]c2ccccc12)NC(=O)OC(C)(C)C)[C@@H](CC(=O)O)C(=O)N(C)[C@@H](Cc1ccccc1)C(N)=O [Example 72, t-BOC-Trp-Lys(ε-N-(4-hydroxycinnamoyl))-(NMe)Asp-(NMe)PheNH2] (Boc-WK(X1)[NMeD][NMeF]-NH2)	12	> 9000		
CN(C(=O)[C@H](CCCCNC(=O)c1ccc2cc(O)ccc2c1)NC(=O)[C@H](Cc1c[nH]c2ccccc12)NC(=O)OC(C)(C)C)[C@@H](CC(=O)O)C(=O)N(C)[C@@H](Cc1ccccc1)C(N)=O [Example 73] (Boc-WK(2Naphthoyl(6-OH))[NMeD][NMeF]-NH2)	15	3700		
Cc1ccccc1NC(=O)NCCCC[C@H](NC(=O)[C@H](Cc1c[nH]c2ccccc12)NC(=O)OC1C2CC3CC(C2)CC1C3)C(=O)N[C@@H](CC(=O)O)C(=O)N(C)[C@@H](Cc1ccccc1)C(N)=O (stereo partly shown) [Example 74, 2-Adamantyloxycarbonyl-Trp-Lys(ε-N-(2-methylphenyl)aminocarbonyl)Asp-(NMe)PheNH2] (X4-WK([CO-NH(2-Me-phenyl)])D[NMeF]-NH2)			5.10	pIC50 [1]: 7.66
Cc1ccccc1NC(=O)NCCCC[C@H](NC(=O)[C@H](Cc1c[nH]c2ccccc12)NC(=O)OC12CC3CC(CC(C3)C1)C2)C(=O)N[C@@H](CC(=O)O)C(=O)N(C)[C@@H](Cc1ccccc1)C(N)=O [Example 75, 1-Adamantyloxycarbonyl-Trp-Lys(ε-N-(2-methylphenyl)aminocarbonyl)-Asp-(NMe)PheNH2] (Adoc-WK([CO-NH(2-Me-phenyl)])D[NMeF]-NH2)			5.00	pIC50 [1]: 7.77
Cc1ccccc1NC(=O)NCCCC[C@H](NC(=O)[C@H](Cc1c[nH]c2ccccc12)NC(=O)OCc1ccccc1)C(=O)N[C@@H](CC(=O)O)C(=O)N(C)[C@@H](Cc1ccccc1)C(N)=O [Example 76, Benzyloxycarbonyl-Trp-Lys(ε-N-(2-methylphenyl)aminocarbonyl)-Asp-(NMe)PheNH2] (Cbz-WK([CO-NH(2-Me-phenyl)])D[NMeF]-NH2)			5.19	pIC50 [1]: 7.74
Cc1ccccc1NC(=O)NCCCC[C@H](NC(=O)[C@H](Cc1c[nH]c2ccccc12)NC(=O)OCC(C)C)C(=O)N[C@@H](CC(=O)O)C(=O)N(C)[C@@H](Cc1ccccc1)C(N)=O [Example 77, Isobutyloxycarbonyl-Trp-Lys(ε-N-(2-methylphenyl)aminocarbonyl)-Asp-(NMe)PheNH2] (Isobutyloxycarbonyl-WK([CO-NH(2-Me-phenyl)])D[NMeF]-NH2)				IC50 [1, 5]: 2.3 nM; IC50 ([2]; IC50 (nM) 125I-BH-CCK-8 Type-B receptor): 6500 nM
Cc1ccccc1NC(=O)NCCCC[C@H](NC(=O)[C@H](Cc1c[nH]c2ccccc12)NC(=O)OC(C)C)C(=O)N[C@@H](CC(=O)O)C(=O)N(C)[C@@H](Cc1ccccc1)C(N)=O [Example 78, Isopropyloxycarbonyl-Trp-Lys(ε-N-(2-methylphenyl)aminocarbonyl)-Asp-(NMe)PheNH2] (Isopropoxycarbonyl-WK([CO-NH(2-Me-phenyl)])D[NMeF]-NH2)			5.30	IC50 [1, 5]: 1.6 nM

From US5270302A, “Derivatives of tetrapeptides as CCK agonists” (priority 1991, dated 1993)
